The record followed here is the supplement of paper PMC7801607.

pIC50: −log10 of the molar value. Some results are limits rather than exact numbers.

The subject of test [1] is Plasmodium berghei ANKA liver stage in HepG2-A16-CD81.
The subject of test [2] is Plasmodium falciparum Dd2 asexual blood stage.
Test [3] relates to Plasmodium falciparum NF54 asexual blood stage.
Test [4] deals with Plasmodium falciparum NF54 stage IV/V gametocytes. As to the method: (§1)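 Dose-response IC50s: P. falciparum NF54 asexual (pLDH, 72 h; 6 means >6 µM), Dd2 asexual (SYBR Green I, 72 h, 1536-well; 5 means >5 µM), NF54 stage IV/V gametocytes (luciferase 48 h, ATP 24 h, PrestoBlue 48 h), P. berghei liver stage in HepG2-A16-CD81 (luciferase, 48 h; 5 means >5 µM), HepG2 CC50 (CellTiter-Glo; 5 means >5 µM).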

Test [5] has the same test system. The procedure: as §1
This is another data set of the same source.

The subject of test [6] is HepG2-A16-CD81. The experiment in a line: CC50; higher = less toxic. As to the method: as §1

For `Clc1cc(Cl)c2c(c1)CCc1ccccc1C2n1ccnc1` (stereo unspecified), the pIC50 was less than 5.30 in test [1], 5.47 in test [2] and 5.83 in test [3]. The “IC50 (ATP bioluminescence)” value in test [4] came out at 4230 nM. Besides, in test [5], the “IC50 (luciferase reporter)” value was found to be 7650 nM. The same compound showed a CC50 in test [6] of more than 5000 nM.

`CCC(C)NCC(O)Cn1c2ccc(Cl)cc2c2cc(Cl)ccc21` (stereo unspecified): the pIC50 in test [1] is less than 5.30; in test [2] it was 7.29; in test [3], 6.42. Further, the “IC50 (ATP bioluminescence)” value in test [4] was 2910 nM. For the same compound, the “IC50 (luciferase reporter)” value in test [5] amounted to 7640 nM. Also, in test [6], the CC50 was more than 5000 nM.

On to `COc1cc(C)c2c(Oc3cccc(C(F)(F)F)c3)c(OC)cc(NC(C)CCCN)c2n1` (stereo unspecified), for which the pIC50 in test [1] is 5.48; in test [2], 6.30; in test [3] it was 6.03. In addition, the “IC50 (ATP bioluminescence)” value in test [4] turned out to be 1400 nM. Moreover, the “IC50 (luciferase reporter)” value in test [5] turned out to be 7690 nM. In test [6], this compound showed a CC50 of more than 5000 nM.

With `CC[C@H](NC(=O)[C@H](C)NC)C(=O)N1C[C@@H](O)C[C@H]1Cc1c(-c2[nH]c3cc(F)ccc3c2C[C@@H]2C[C@H](O)CN2C(=O)[C@H](CC)NC(=O)[C@H](C)NC)[nH]c2cc(F)ccc12`, the pIC50 in test [1] is 6.89; in test [2], 6.63; in test [3], 6.01. The “IC50 (ATP bioluminescence)” value in test [4] came to 1530 nM. For the same compound, the “IC50 (luciferase reporter)” value in test [5] came to 5210 nM. In test [6], this compound had a CC50 of more than 5000 nM.

For `CCCCC(CC)CNC(=N)NC(=N)NCCCCCCNC(=N)NC(=N)NCC(CC)CCCC` (stereo unspecified), the negative logarithm of the IC50 (pIC50) was 5.66 in test [1], 7.64 in test [2] and 6.96 in test [3]. Further, the “IC50 (ATP bioluminescence)” value in test [4] was 824 nM. Also, in test [5], the “IC50 (luciferase reporter)” value was determined as 1030 nM. The CC50 in test [6] came to 4140 nM.

Turning to `N=c1n(CCN2CCCCC2)c2ccccc2n1CC(O)COc1ccc(Cl)cc1Cl` (stereo unspecified), the pIC50 in test [1] is 5.55; in test [2] it was 6.08; in test [3], 5.97. Also, the “IC50 (ATP bioluminescence)” value in test [4] stood at 340 nM. Moreover, the “IC50 (luciferase reporter)” value in test [5] was 3820 nM. In test [6], the cytotoxic concentration (CC50) was more than 5000 nM.
